These results are taken from patent US9206198B2, “Inhibitors of the renal outer medullary potassium channel” (Merck Sharp & Dohme Corp., priority 2012, dated 2015).

Molecules are shown by their SMILES.

The target in one test is hROMK (hKir1.1) (Homo sapiens (Human), UniProt P48048). The test is described as follows: Thallium Flux Assay (ROMK channel functional thallium flux assay, FLIPR-Tetra). Format: cell-based. As to conditions: HEK293 cells stably expressing hROMK. Here is the method: Cell Culture Conditions— HEK293 cells stably expressing hROMK (hKir1.1) were grown at 37° C. in a 10% CO2 humidified incubator in complete growth media: Dulbecco's Modified Eagle Medium supplemented with non-essential amino acids, Penicillin/Streptomycin/Glutamine, G418 and FBS. At >80% confluency, aspirate the media from the flask and rinse with 10 mL Calcium/Magnesium-free PBS. Add 5 mL of 1× trypsin (prepared in Ca/Mg Free PBS) to T-225 flask and return flask to 37° C./CO2 incubator for 2-3 minutes. To dislodge the cell, gently bang the side of the flask with your hand. Triturate the cells completely and then transfer the cells to 25 mL complete media. Centrifuge at 1,500 rpm for 6 min followed by resuspension in complete growth media and determine cell concentration. For typical re-seeding, 4E6 cells/T-225 flask will attain >80% confluency in 4 days. Under ideal growth conditions and appropriate tissue culture practices, this cell line is stable for 40-45 passages.
Chain of hROMK (hKir1.1) (P48048 whole entry): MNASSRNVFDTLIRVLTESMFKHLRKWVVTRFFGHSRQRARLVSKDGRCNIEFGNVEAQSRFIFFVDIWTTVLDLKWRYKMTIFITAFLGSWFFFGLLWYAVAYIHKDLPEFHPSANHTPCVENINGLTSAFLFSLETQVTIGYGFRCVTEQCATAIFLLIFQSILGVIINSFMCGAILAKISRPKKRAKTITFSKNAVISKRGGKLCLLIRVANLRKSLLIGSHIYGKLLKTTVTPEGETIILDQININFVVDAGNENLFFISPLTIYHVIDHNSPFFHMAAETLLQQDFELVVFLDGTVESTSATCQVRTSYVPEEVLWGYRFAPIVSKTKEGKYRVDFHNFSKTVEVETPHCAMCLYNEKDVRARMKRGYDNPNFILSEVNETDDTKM
FluxOR Kit Components (Invitrogen F10017)
• FluxOR™ Reagent (Component A) • FluxOR™ Assay Buffer (Component B)—10× Concentrate • PowerLoad™ Concentrate (Component C)—100× Concentrate • Probenecid (Component D)—Lyophilized sample is kept at −20° C. Water soluble, 100×after solubilization in 1 mL water. Store at 4° C. • FluxOR™ Chloride-free Buffer (Component E)—5× Concentrate • Potassium sulfate (K2SO4) Concentrate (Component F)—125 mM in water. Store at 4° C. • Thallium sulfate (Tl2SO4) Concentrate (Component G)—50 mM in water. Store at 4° C. • DMSO (dimethyl sulfoxide, Component H)—1 mL (100%) Reagent Preparation: FluxOR Working Solutions • 1000× FluxOR™ Reagent: Reconstitute a vial of component A in 100 μl DMSO; Mix well; Store 10 μl aliquots at −20° C. • 1× FluxOR™ Assay Buffer: Dilute Component B 10-fold with water; Adjust pH to 7.4 with Hepes/NaOH; Filter and store at 4° C. • Probenecid/Assay Buffer: 100 mL of 1× FluxOR™ Assay Buffer; 1 mL of reconstituted component D; Store at 4° C. • Loading Buffer (per microplate): 10 μl 1000× FluxOR™ Reagent; 100 μl component C; 10 mL Probenecid/Assay Buffer • Compound Buffer (per microplate): 20 mL Probenecid/Assay Buffer; 0.3 mM ouabain (10 mM ouabain in water can be stored in amber bottle/aluminum foil at room temperature); Test compound • 1× FluxOR™ Chloride-Free Buffer: Prepare 1× working solution in water. Can be stored at room temperature • Stimulant Buffer (prepared at 5× final concentration in 1× FluxOR™ Chloride-Free Buffer): 7.5 mM Thallium sulfate and 0.75 mM Potassium sulfate (to give a final assay concentration of 3 mM Thallium 0.3 mM Potassium). Store at 4° C. when not in use. If kept sterile, this solution is good for months.
Assay Protocol—The ROMK channel functional thallium flux assay is performed in 384 wells, using the FLIPR-Tetra instrument. HEK-hKir1.1 cells are seeded in Poly-D-Lysine microplates and kept in a 37° C.-10% CO2 incubator overnight. On the day of the experiment, the growth media is replaced with the FluxOR™ reagent loading buffer and incubated, protected from light, at ambient temperature (23-25° C.) for 90 min. The loading buffer is replaced with assay buffer±test compound followed by 30 min incubation at ambient temperature, where the Thallium/Potassium stimulant is added to the microplate.
• 1. Seed HEK-hKir1.1 cells ([…] at 20,000 cells/well) in 384-well PDL coated Microplates • 2. Allow cells to adhere overnight in humidified 37° C./10% CO2 incubator • 3. Completely remove cell growth media from microplate and replace with 25 μl loading buffer • 4. Incubate Microplate at room temperature, protected form light, for 90 min • 5. Remove loading buffer and replace with 25 μl 1× Assay Buffer±test compound. • 6. Incubate microplate at room temperature, protected from light, for 30 min • 7. At FLIPR-Tetra 384: Add stimulant (Thallium/Potassium) solution to microplate and monitor fluorescence. Excitation=400 nm, Emission=460 & 580 nm. Collect data for 10 min.

The next test deals with Kir1.1 (ROMK1) (Homo sapiens (Human), UniProt P48048). The test is described as follows: Electrophysiology Assay (whole cell voltage clamp, IonWorks Quattro). As to conditions: Chinese hamster ovary cells stably expressing Kir1.1; block during voltage step to 0 mV. The class given is cell-based. Here is the method: Block of Kir1.1 (ROMK1) currents was examined by whole cell voltage clamp (Hamill et. al. Pfluegers Archives 391:85-100 (1981)) using the IonWorks Quattro automated electrophysiology platform (Molecular Devices, Sunnyvale, Calif.). Chinese hamster ovary cells stably expressing Kir1.1 channels were maintained in T-75 flasks in cell culture media in a humidified 10% CO2 incubator at 37° C. Prior to an experiment, Kir1.1 expression was induced by overnight incubation with 1 mM sodium butyrate. On the day of the experiment, cells were dissociated with 2.5 mL of Versene (Invitrogen 15040-066) for approximately 6 min at 37° C. and suspended in 10 mL of bath solution containing (in mM): 150 NaCl, 10 KCl, 2.7 CaCl2, 0.5 MgCl2, 5 HEPES, pH 7.4. After centrifugation, the cell pellet was resuspended in approximately 4.0 mL of bath solution and placed in the IonWorks instrument. The intracellular solution consisted of (in mM): 80 K gluconate, 40 KCl, 20 KF, 3.2 MgCl2, 3 EGTA, 5 Hepes, pH 7.4. Electrical access to the cytoplasm was achieved by perforation in 0.13 mg/mL amphotericin B for 4 min. Amphotericin B (Sigma A-4888) was prepared as a 40 mg/mL solution in DMSO. Voltage protocols and current recordings were performed using the IonWorks HT software/hardware system. Currents were sampled at 1 kHz. No correction for liquid junction potentials was used. The test pulse, consisting of a 100 ms step to 0 mV from a holding potential of −70 mV, followed by a 100 ms voltage ramp from −70 mV to +70 mV, was applied before and after a 6 min compound incubation period. Test compounds were prepared by diluting DMSO stock solutions into the bath solution at 3× the final concentration and placed in the instrument in 96-well polypropylene plates. Current amplitudes were measured using the IonWorks software. To assess compound potency, the fractional block during the voltage step to 0 mV was calculated in Microsoft Excel (Microsoft, Redmond, Calif.), and dose-response curves were fitted with Igor Pro 4.0 (WaveMetrics, Lake Oswego, Oreg.). Normally, a control compound is included to support that the assay is giving consistent results compared to previous measurements, although the control is not required to obtain the results for the test compounds.
Chain of Kir1.1 (ROMK1) (P48048 whole entry, species assumed): as the sequence (P48048 whole entry) above

One may read the IC50 as the concentration that inhibits the measured activity by half. A higher IC50 goes with weaker potency.

As for `O=C1C=C(N2CCC3(CCN(CC4OCCc5c4ccc4c5COC4=O)CC3)C2=O)CO1` (racemic) [Example 52], the IC50 on hROMK (hKir1.1) amounted to 350 nM; against Kir1.1 (ROMK1) it was 60 nM.
For `CC1=C(N2C(=O)C3(CCN(C[C@H](O)c4ccc5c(c4C)COC5=O)CC3)CC2C)COC1=O` (single isomer, unassigned) [Example 30] the same measures were 20 nM and 20 nM.
Turning to `CCC1CC2(CCN(C[C@H](O)c3ccc4c(c3C)COC4=O)CC2)C(=O)N1C1=CC(=O)OC1` (single isomer, unassigned) [Example 66], the IC50 against hROMK (hKir1.1) was 10 nM; against Kir1.1 (ROMK1) it was 20 nM.
Consider `Cc1c([C@@H](O)CN2CCC3(CC2)CC(C2CC2)N(C2=CC(=O)OC2)C3=O)ccc2c1COC2=O` (single isomer, unassigned) [Example 69], for which the figures for the half-maximal inhibitory concentration (IC50) on hROMK (hKir1.1) and on Kir1.1 (ROMK1) were 20 nM and 30 nM, respectively.
The corresponding values for `CCc1c(C(O)CN2CCC3(CC2)CCN(C2=C(C)C(=O)OC2)C3=O)ccc2c1COC2=O` (single isomer, unassigned) [Example 75] are 30 nM and 10 nM.
For `CC1=C(N2CCC3(CCN(CC(O)c4ccc5c(c4C4CC4)COC5=O)CC3)C2=O)COC1=O` (single isomer, unassigned) [Example 76] the same measures were 10 nM and 10 nM.
Regarding `CC1=C(N2CCC3(CCN(CC(O)c4ccc5c(c4Cl)COC5=O)CC3)C2=O)COC1=O` (single isomer, unassigned) [Example 79], the IC50 was determined as 10 nM on hROMK (hKir1.1) and 3 nM on Kir1.1 (ROMK1).
For `CC1=C(N2CCC3(CCN(CC(O)c4ccc5c(c4F)COC5=O)CC3)C2=O)COC1=O` (single isomer, unassigned) [Example 80] the same measures were 50 nM and 10 nM.
With `O=C1C=C(N2CCC3(CCN(CCc4ccc5c(c4)COC5=O)CC3)C2=O)CO1` [Example 3], the IC50 on hROMK (hKir1.1) came to 290 nM; against Kir1.1 (ROMK1), 70 nM.
The corresponding values for `Cc1c([C@@H](O)CN2CCC3(CC2)CCN(C2=CC(=O)OC2)C3=O)ccc2c1COC2=O` [Example 5, 8-[(2R)-2-hydroxy-2-(4-methyl-1-oxo-1,3-dihydro-2-benzofuran-5-yl)ethyl]-2-(5-oxo-2,5-dihydrofuran-3-yl)-2,8-diazaspiro[4.5]decan-1-one] are 30 nM and 4 nM.
For `CC1=C(N2CCC3(CCN(C[C@H](O)c4ccc5c(c4C)COC5=O)CC3)C2=O)COC1=O` [Example 7, 8-[(2R)-2-hydroxy-2-(4-methyl-1-oxo-1,3-dihydro-2-benzofuran-5-yl)ethyl]-2-(4-methyl-5-oxo-2,5-dihydrofuran-3-yl)-2,8-diazaspiro[4.5]decan-1-one] the same measures were 20 nM and 10 nM.
For `CC1=C(N2CCCC3(CCN(C[C@H](O)c4ccc5c(c4C)COC5=O)CC3)C2=O)COC1=O` [Example 9, 9-[(2R)-2-hydroxy-2-(4-methyl-1-oxo-1,3-dihydro-2-benzofuran-5-yl)ethyl]-2-(4-methyl-5-oxo-2,5-dihydrofuran-3-yl)-1-oxo-2-aza-9-azoniaspiro[5.5]undecane] the same measures were 10 nM and 10 nM.
`CC1=C(N2CCC3(CCN(CC(NC4CC4)c4ccc5c(c4C)COC5=O)CC3)C2=O)COC1=O` (stereo not drawn) [Example 54, 8-(2-(cyclopropylamino)-2-(4-methyl-1-oxo-1,3-dihydroisobenzofuran-5-yl)ethyl)-2-(4-methyl-5-oxo-2,5-dihydrofuran-3-yl)-2,8-diazaspiro[4.5]decan-1-one]: the IC50 against hROMK (hKir1.1) came out at 150 nM.
`CC1=C(N2CCC3(CCN(CC(NCC(F)F)c4ccc5c(c4C)COC5=O)CC3)C2=O)COC1=O` (stereo not drawn) [Example 55]: the IC50 against hROMK (hKir1.1) came out at 250 nM.
On the same count and under the same terms, for `CC1=C(N2CCC3(CCN(CC(NC4CCC4)c4ccc5c(c4C)COC5=O)CC3)C2=O)COC1=O` (stereo not drawn) [Example 56] the value was 370 nM.
For `COCCNC(CN1CCC2(CC1)CCN(C1=C(C)C(=O)OC1)C2=O)c1ccc2c(c1C)COC2=O` (stereo not drawn) [Example 58], on hROMK (hKir1.1), the IC50 came to 220 nM.
Same read-out and setting: for `CC1=C(N2CCC3(CCN(CC(NCCC#N)c4ccc5c(c4C)COC5=O)CC3)C2=O)COC1=O` (stereo not drawn) [Example 59] the value was 210 nM.
The same measure, in the same setting: in the case of `CNC(CN1CCC2(CC1)CCN(C1=C(C)C(=O)OC1)C2=O)c1ccc2c(c1C)COC2=O` (stereo not drawn) [Example 60, 8-[2-(methylamino)-2-(4-methyl-1-oxo-1,3-dihydro-2-benzofuran-5-yl)ethyl]-2-(4-methyl-5-oxo-2,5-dihydrofuran-3-yl)-2,8-diazaspiro[4.5]decan-1-one] it was 100 nM.
On the same count and under the same terms, for `Cc1c([C@@H](O)CN2CCC3(CC2)C(=O)N(C2=CC(=O)OC2)c2ccccc23)ccc2c1COC2=O` [Example 65, 1′-[(2R)-2-hydroxy-2-(4-methyl-1-oxo-1,3-dihydro-2-benzofuran-5-yl)ethyl]-2-oxo-1-(5-oxo-2,5-dihydrofuran-3-yl)-1,2-dihydrospiro[indole-3,4′-piperidinium]] the value was 40 nM.
`CC1=C(N2C(=O)C3(CCN(C[C@H](O)c4ccc5c(c4C)COC5=O)CC3)CC2C2CC2)COC1=O` (stereo partly drawn) [Example 70] registered a concentration for half-maximal inhibition (IC50) against hROMK (hKir1.1) of 340 nM. Against the preceding compound, the IC50 is about 8.5-fold higher.
Still for that read-out and setting: for `COCC1=C(N2CCC3(CCN(C[C@H](O)c4ccc5c(c4C)COC5=O)CC3)C2=O)COC1=O` [Example 71] the value was 70 nM; for `CC1=CC2(CCN(C[C@H](O)c3ccc4c(c3C)COC4=O)CC2)C(=O)N1C1=CC(=O)OC1` [Example 72], 30 nM; for `CC1=CN(C2=C(C)C(=O)OC2)C(=O)C12CCN(C[C@H](O)c1ccc3c(c1C)COC3=O)CC2` [Example 73], 80 nM.
On the same count and under the same terms, in the case of `CC1=C(N2CCC3(CC4COCC(C3)N4C[C@H](O)c3ccc4c(c3C)COC4=O)C2=O)COC1=O` (stereo partly drawn) [Example 82] it was 180 nM.
